molecular target: T1, rat 17β-HSD 1 (Rattus norvegicus, UniProt P51657); test: In vitro enzymatic activity, recombinant rat 17β-HSD 1; assay type: biochemical; conditions: 2 µM compound, 15 nM 3H-estrone, read-out: Observed % inhibition
T1 construct: Full length cDNAs of several 17β-HSDs type 1 originating from different species were cloned; made in house; host or cells: E.coli BL21 DE3 Codon Plus RP
T1 sequence (P51657 1-344): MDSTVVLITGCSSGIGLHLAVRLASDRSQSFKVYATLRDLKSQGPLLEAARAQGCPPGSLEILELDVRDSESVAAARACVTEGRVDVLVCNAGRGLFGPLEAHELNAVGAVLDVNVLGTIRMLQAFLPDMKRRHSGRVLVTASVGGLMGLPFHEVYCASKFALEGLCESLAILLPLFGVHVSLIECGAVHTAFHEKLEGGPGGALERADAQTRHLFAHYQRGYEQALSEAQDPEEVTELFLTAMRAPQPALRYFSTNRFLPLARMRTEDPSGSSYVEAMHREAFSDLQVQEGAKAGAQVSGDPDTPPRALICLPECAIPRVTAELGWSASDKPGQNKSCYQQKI
Text: Full length cDNAs of several 17β-HSDs type 1 originating from different species were cloned either into the pQE30 vector (human 17β-HSD 1, coding for acc. no. NP_000404) for expression as His-Tag protein or into a modified pGex-2T vector [63] (mouse 17β-HSD 1, acc. no. NP_034605; rat 17β-HSD 1, acc. no. NP_036983; marmoset 17β-HSD 1, acc. no. AAG01115; porcine 17β-HSD 1, acc. no. NP_001121944) for expression as GST-fusion proteins. The marmoset 17β-HSD 1 enzyme sequence was updated by the missing N-terminal part (AF272013) and the new porcine sequence was submitted to GenBank (NP_001121944). Human 17β-HSDs 2, 4, 5 (AKR1C3, the latter kindly provided by Dr. T. Penning) and 7 were all cloned into the modified pGEX-2T vector. For 17β-HSD 4 only the SDR-domain converting the steroids was subcloned. Plasmids were transformed into E.coli BL21 DE3 Codon Plus RP (Stratagene) and enzyme expression was induced by 0.5 mM IPTG. After 4h incubation at 37°C with continuous shaking bacteria were pelleted by centrifugation at 10.000×g. Pellets were stored until use at −20°C.
The bacteria containing recombinant enzymes were resuspended in PBS and enzymatic assays were performed in 100 mM sodium phosphate buffer at pH 6.6 for the reductive reaction and at pH 7.7 for the oxidative reaction. […] All substrates were purchased from NEN/Perkin Elmer. The cofactors NADPH (Sigma; for reductive reactions) and NAD^+ (Serva, for oxidative reactions) were used at final concentrations of 0.5 mg/ml. […] The incubation at 37°C was stopped with 0.21 M ascorbic acid in methanol∶acetic acid 99∶1 (v∶v) after the time needed to convert approximately 30% of the substrate in a control assay with 1% DMSO, without inhibitor candidates. […] The solvent used was acetonitrile∶water (43∶57, v∶v) at a flow rate of 1 ml/min. Radioactivity was detected by online-scintillation counting (Berthold LB506D) after mixing with ReadyFlowIII (Beckman). Conversion was calculated from integration of substrate and product peaks. […] All assays were run in duplicates of two independent experiments and mean values are reported. The IC50 values were determined by the One Ligand Binding model of SigmaPlot kinetics module.

SMILES	inhibition at 2 µM [%]
C[C@]12CC[C@@H]3c4ccc(O)cc4CC[C@H]3[C@@H]1[C@@H](CCCC(=O)N1CCOCC1)CC2=O [Compound 2]	40.3
COc1ccc(-c2cn(CCC[C@H]3CC(=O)[C@@]4(C)CC[C@@H]5c6ccc(O)cc6CC[C@H]5[C@H]34)nn2)cc1 [Compound 4]	19.4
C[C@]12CC[C@@H]3c4ccc(O)cc4CC[C@H]3[C@@H]1[C@@H](CNC(=O)c1ccc(F)cc1)CC2=O [Compound 1]	47.1
Cc1cnc(NC(=O)CC[C@@H]2CC(=O)[C@@]3(C)CC[C@@H]4c5ccc(O)cc5CC[C@H]4[C@H]23)s1 [Compound 3]	5.3
C[C@]12CC[C@@H]3c4ccc(O)cc4CC[C@H]3[C@@H]1C[C@H](CC(=O)NCc1cccnc1)C2=O [Compound 5, reference compound]	-2.4

— article PMC2882332, “Species Used for Drug Testing Reveal Different Inhibition Susceptibility for 17beta-Hydroxysteroid Dehydrogenase Type 1” (PLoS ONE, 2010)
